Experimental data: PMC11596392, “Enhanced Antibacterial, Anti-Inflammatory, and Antibiofilm Activities of Tryptophan-Substituted Peptides Derived from Cecropin A-Melittin Hybrid Peptide BP100” (Molecules, 2024)
Values after ≈ are worked out from the molar mass of the structure shown. Where no end group is shown, it is not given here.

How the values were obtained:
B. subtilis (KCTC 3068) = assay type: cell-based, Bacillus subtilis; conditions: broth microdilution in MHB, 37 °C, 24 h, 100% inhibition of growth
Method: (§1) The antibacterial efficacy of the synthesized peptides was evaluated by determining the minimal inhibitory concentrations (MICs) against six standard bacterial strains and five drug-resistant bacterial strains using the Clinical and Laboratory Standards Institute (CLSI) microdilution method. Melittin served as the positive control.
(§2) The minimal inhibitory concentrations (MICs) of the peptides against bacterial strains were determined using a modified broth-microdilution method in accordance with the National Committee for Clinical Laboratory Standards (NCCLS) guidelines. Overnight cultures were diluted in cation-adjusted Mueller–Hinton Broth (MHB) to achieve an inoculum density of 2 × 10^6 CFU/mL. A two-fold serial dilution of the peptide solution (100 μL) was introduced into microtiter plates, followed by the addition of 100 μL of bacterial suspension. The plates were then incubated at 37 °C for 24 h to determine the MICs. Wells containing only culture media served as negative controls, while those with added bacteria functioned as positive controls. The MIC, expressed in μM, was defined as the lowest peptide concentration that prevented visible bacterial growth. This protocol was also employed to determine MICs in the presence of physiological salts (150 mM of NaCl, 4.5 mM of KCl, 6 μM of NH4Cl, 1 mM of MgCl2, 2.5 mM of CaCl2, and 4 μM of FeCl3) and 20% human serum to assess the peptides’ efficacy under conditions more closely resembling physiological environments. All experiments were conducted in triplicate and repeated three times independently to ensure reproducibility and statistical significance of the results.

MRSA (CCARM 3089) = assay type: cell-based, methicillin-resistant Staphylococcus aureus; conditions: broth microdilution in MHB, 37 °C, 24 h, 100% inhibition of growth
Method: as §1, §2

MRSA (CCARM 3090) = assay type: cell-based, methicillin-resistant Staphylococcus aureus; conditions: broth microdilution in MHB, 37 °C, 24 h, 100% inhibition of growth
Method: as §1, §2

[1] = test system: P. aeruginosa (KCTC 1637); assay type: cell-based, Pseudomonas aeruginosa; conditions: broth microdilution in MHB, 37 °C, 24 h, 100% inhibition of growth
Method: as §1, §2

[2] = test system: MDRPA (CCARM 2095) biofilm formation; assay type: cell-based, multidrug-resistant Pseudomonas aeruginosa; conditions: overnight 37 °C, crystal violet staining; for MBIC50: 50% inhibition; for MBIC90: 90% inhibition
From the text: Bacterial biofilms, comprising communities of bacterial cells encased in a matrix of polysaccharides and nucleic acids, present a significant challenge for conventional antibiotics due to the protective nature of this matrix. Biofilms can enhance bacterial resistance to antibiotics by up to 1000-fold compared to planktonic bacteria. To address this issue, there is an urgent need to discover and develop novel alternative therapeutic agents capable of effectively combating biofilm-forming bacteria. […] Our research specifically focused on evaluating the impact of BP100 and its analogs on biofilm formation and eradication using multidrug-resistant Pseudomonas aeruginosa (MDRPA), a common pathogen responsible for biofilm-mediated nosocomial infections. The adhered biomass was quantified using crystal violet staining, and the minimum biofilm inhibitory concentration (MBIC90) was determined as the lowest concentration required to inhibit 90% of biofilm growth relative to the positive control. […] Human cathelicidin LL-37 is well-documented for its potent antibiofilm properties.
The inhibitory activity of the peptides on biofilm formation was evaluated against multidrug-resistant Pseudomonas aeruginosa (MDRPA) (CCARM 2095) using a biofilm inhibition assay to determine the minimal biofilm inhibitory concentration (MBIC). Peptide solutions were serially diluted in sterile water and aliquoted (100 μL) into a 96-well Costar polypropylene plate (Corning Inc., Corning, NY, USA). An equal volume of MDRPA suspension in Mueller–Hinton Broth (MHB), adjusted to 1 × 10^6 CFU/mL, was added to each well, resulting in a final inoculum density of 5 × 10^5 CFU/mL. Following overnight incubation at 37 °C, bacterial growth was quantified by measuring the optical density (OD) at 595 nm. Planktonic cells were then discarded, and the attached biofilms were washed thrice with distilled water. Residual biofilms were stained with 0.1% crystal violet for five minutes, washed to remove non-adherent dye, and subsequently destained using 95% ethanol. The OD at 595 nm was measured again to assess the biofilm mass. Control wells contained untreated bacteria. The MBIC was defined as the lowest peptide concentration that inhibited any residual crystal violet staining or biofilm formation. All assays were conducted in triplicate to ensure reproducibility. This method allows for the quantitative assessment of the peptides’ ability to prevent biofilm formation, a critical virulence factor in many bacterial infections, particularly those caused by multidrug-resistant strains.

E. coli (KCTC 1682) = assay type: cell-based, Escherichia coli; conditions: 10% Human Serum
S. aureus (KCTC 1621) = assay type: cell-based, Staphylococcus aureus; conditions: 10% Human Serum

Row | Molecule | Minimal Inhibitory Concentration (MIC) (B. subtilis (KCTC 3068)) | Minimal Inhibitory Concentration (MIC) (MRSA (CCARM 3089)) | Minimal Inhibitory Concentration (MIC) (MRSA (CCARM 3090)) | Minimal Inhibitory Concentration (MIC) [1] | MBIC50 [2] | MBIC90 [2] | MIC (E. coli (KCTC 1682)) | MIC (S. aureus (KCTC 1621))
1 | CC[C@H](C)[C@H](NC(=O)[C@H](CCCCN)NC(=O)[C@H](CCCCN)NC(=O)[C@H](Cc1c[nH]c2ccccc12)NC(=O)[C@H](CC(C)C)NC(=O)[C@H](CCCCN)NC(=O)[C@@H](N)CCCCN)C(=O)N[C@@H](CC(C)C)C(=O)N[C@@H](CCCCN)C(=O)N[C@@H](Cc1ccc(O)cc1)C(=O)N[C@@H](CC(C)C)C(N)=O [BP1] | 8 µM | 32 µM | 64 µM | 16 µM | 4 to 8 µM | 8 µM |  | 
2 | CC(C)C[C@H](NC(=O)[C@H](Cc1ccc(O)cc1)NC(=O)[C@H](CCCCN)NC(=O)[C@H](CC(C)C)NC(=O)[C@H](Cc1c[nH]c2ccccc12)NC(=O)[C@H](CCCCN)NC(=O)[C@H](CCCCN)NC(=O)[C@H](Cc1ccccc1)NC(=O)[C@H](CC(C)C)NC(=O)[C@H](CCCCN)NC(=O)[C@@H](N)CCCCN)C(N)=O [BP2] | 8 µM | 16 µM | 16 µM | 8 µM | 8 to 16 µM | 16 µM |  | 
3 | CC[C@H](C)[C@H](NC(=O)[C@H](CCCCN)NC(=O)[C@H](CCCCN)NC(=O)[C@H](Cc1ccccc1)NC(=O)[C@H](CC(C)C)NC(=O)[C@H](CCCCN)NC(=O)[C@@H](N)CCCCN)C(=O)N[C@@H](Cc1c[nH]c2ccccc12)C(=O)N[C@@H](CCCCN)C(=O)N[C@@H](Cc1ccc(O)cc1)C(=O)N[C@@H](CC(C)C)C(N)=O [BP3] | 16 µM | 64 µM | 64 µM | 32 µM | 8 to 16 µM | 16 µM |  | 
4 | CC[C@H](C)[C@H](NC(=O)[C@H](CCCCN)NC(=O)[C@H](CCCCN)NC(=O)[C@H](Cc1ccccc1)NC(=O)[C@H](CC(C)C)NC(=O)[C@H](CCCCN)NC(=O)[C@@H](N)CCCCN)C(=O)N[C@@H](CC(C)C)C(=O)N[C@@H](CCCCN)C(=O)N[C@@H](Cc1c[nH]c2ccccc12)C(=O)N[C@@H](CC(C)C)C(N)=O [BP4] | 4 µM | 64 µM | 64 µM | 16 µM | 4 to 8 µM | 8 µM |  | 
5 | CC[C@H](C)[C@H](NC(=O)[C@H](CCCCN)NC(=O)[C@H](CCCCN)NC(=O)[C@H](Cc1ccccc1)NC(=O)[C@H](CC(C)C)NC(=O)[C@H](CCCCN)NC(=O)[C@@H](N)CCCCN)C(=O)N[C@@H](CC(C)C)C(=O)N[C@@H](CCCCN)C(=O)N[C@@H](Cc1ccc(O)cc1)C(=O)N[C@@H](CC(C)C)C(N)=O [BP100] | 8 µM | 32 µM | 64 µM | 16 µM | 4 to 8 µM | 8 µM | 16 µM (≈ 22.7 µg/mL) | 32 µM (≈ 45.5 µg/mL)
6 | KKLFKKILKWW-NH2 [BP12] | 8 µM | 64 µM | 64 µM | 16 µM | 4 to 8 µM | 8 µM |  | 
7 | KKLFKKIWKWL-NH2 [BP11] | 8 µM | 8 µM | 32 µM | 8 µM | 4 to 8 µM | 8 µM | 8 µM | 8 µM
8 | KKLFKKWLKYW-NH2 [BP10] | 16 µM | 64 µM | 64 µM | 8 µM | 16 to 32 µM | 32 µM |  | 
9 | KKLFKKWWKWL-NH2 [BP16] | 16 µM | 16 µM | 128 µM | 8 µM | 8 to 16 µM | 16 µM |  | 
10 | KKLFKKWWKYL-NH2 [BP9] | 16 µM | 64 µM | 64 µM | 16 µM | 8 to 16 µM | 16 µM |  | 
11 | KKLWKKILKWL-NH2 [BP8] | 8 µM | 16 µM | 16 µM | 16 µM | 4 to 8 µM | 8 µM | 4 µM | 4 µM
12 | KKLWKKIWKYL-NH2 [BP7] | 4 µM | 8 µM | 32 µM | 8 µM | 4 to 8 µM | 8 µM |  | 
13 | KKLWKKIWKYW-NH2 [BP15] | 4 µM | 16 µM | 64 µM | 8 µM | 4 to 8 µM | 8 µM |  | 
14 | KKLWKKWLKYW-NH2 [BP14] | 4 µM | 16 µM | 32 µM | 8 µM | 8 to 16 µM | 16 µM |  | 
15 | KKWFKKILKWL-NH2 [BP6] | 4 µM | 8 µM | 16 µM | 16 µM | 4 to 8 µM | 8 µM | 4 µM | 4 µM
16 | KKWFKKWLKWL-NH2 [BP13] | 8 µM | 32 µM | 32 µM | 16 µM | 4 to 8 µM | 8 µM | 16 µM | 8 µM
17 | KKWWKKILKYL-NH2 [BP5] | 2 µM | 4 µM | 8 µM | 4 µM | 4 to 8 µM | 8 µM | 4 µM | 4 µM
